pIC50: −log10 of the molar value. In brackets after ≈: the same amount, converted by molar mass. Activity calls are given as the source filed them. The calls are words filed in the database; no cut-off is given here.
What was measured:
MDR1 (human) [1] = experiment: Efflux ratio of permeability in MDCK cells expressing human MDR1; type: ADME, cell-based, Canis lupus familiaris; conditions: dog
[2] = Apparent intrinsic clearance in human liver microsomes; type: ADME; conditions: read-out: CLH(app)
Gamma-secretase [3] = experiment: Modulation of gamma-secretase (unknown origin) expressed in CHO cells overexpressing human wild type APP assessed as reduction of amyloid beta 42 level after 24 hrs by ELISA; type: cell-based
[4] = Apparent intrinsic clearance in rat liver microsomes; type: ADME; conditions: read-out: CLH(app)
[5] = biological target: T1, Gamma-secretase (Homo sapiens) (UniProt Q96BI3+Q9NZ42+Q8WW43+P49768+Q92542+P49810); experiment: Binding affinity to gamma-secretase in human HeLa cells assessed as labeling of PS1-NTF at 5 uM by Western blot analysis in presence of 2-[2-(7-Fluoronaphthalen-1-yloxy)ethyl]-7-(4-methyl-1H-imidazol-1-yl)-3,4-dihydro-1H-pyrido[1,2-a]pyrazine-1,6(2H)-dione; type: cell-based
Gamma-secretase [6] = experiment: Inhibition of gamma-secretase in human HeLa cells assessed as reduction of amyloid beta 42 level preincubated for 30 mins measured after 1.5 hrs by Western blotting analysis; type: cell-based
[7] = biological target: T1, Gamma-secretase (Homo sapiens); experiment: Binding affinity to gamma-secretase in human HeLa cells assessed as labeling of PS1-NTF at 5 uM by Western blot analysis in presence of GSI-L458; type: cell-based
[8] = biological target: T1, Gamma-secretase (Homo sapiens); experiment: Binding affinity to gamma-secretase in human HeLa cells assessed as labeling of PS1-NTF at 5 uM by Western blot analysis; type: cell-based
[9] = biological target: T1, Gamma-secretase (Homo sapiens); experiment: Binding affinity to gamma-secretase in human HeLa cells assessed as labeling of PS1-NTF at 5 uM by Western blot analysis in presence of (S)-1-(1-(4-fluorophenyl)ethyl)-3-(3-methoxy-4-(4-methyl-1H-imidazol-1-yl)benzylidene)piperidin-2-one; type: cell-based
Cytochrome P450 2C19 = Cytochrome P450 2C19 (Homo sapiens, UniProt P33261); experiment: Inhibition of CYP2C19 (unknown origin); type: ADME
Gamma-secretase [10] = experiment: Modulation of gamma secretase in HEK293 NdeltaE cells assessed as inhibition of notch signalling; type: cell-based, Homo sapiens
[11] = Bioavailability in rat at 1 mg/kg, iv and 5 mg/kg, po; type: ADME, organism-based; conditions: in vivo
[12] = Ratio of unbound drug level in brain to plasma in rat; type: ADME
[13] = Plasma concentration in rat at 5 mg/kg, po after 1 hr; type: ADME, organism-based; set-up: dose 5 mg/kg, route oral
[14] = Passive apparent permeability from apical to basolateral side in RRCK cells; type: ADME, cell-based, Canis lupus familiaris, MDCKII-LE; conditions: dog, MDCK
[15] = Drug uptake in rat brain at 5 mg/kg, po after 1 hr; type: ADME, organism-based; set-up: dose 5 mg/kg, route oral; conditions: read-out: Drug uptake
MDR1 (human) [16] = experiment: Permeability from apical to basolateral side in MDCK cells expressing human MDR; type: ADME, cell-based, Canis lupus familiaris; conditions: dog, read-out: permeability
Cytochrome P450 1A2 = biological target: T2, Cytochrome P450 1A2 (Homo sapiens, UniProt P05177); experiment: Inhibition of CYP1A2 (unknown origin); type: ADME
T2 sequence (P05177 whole entry): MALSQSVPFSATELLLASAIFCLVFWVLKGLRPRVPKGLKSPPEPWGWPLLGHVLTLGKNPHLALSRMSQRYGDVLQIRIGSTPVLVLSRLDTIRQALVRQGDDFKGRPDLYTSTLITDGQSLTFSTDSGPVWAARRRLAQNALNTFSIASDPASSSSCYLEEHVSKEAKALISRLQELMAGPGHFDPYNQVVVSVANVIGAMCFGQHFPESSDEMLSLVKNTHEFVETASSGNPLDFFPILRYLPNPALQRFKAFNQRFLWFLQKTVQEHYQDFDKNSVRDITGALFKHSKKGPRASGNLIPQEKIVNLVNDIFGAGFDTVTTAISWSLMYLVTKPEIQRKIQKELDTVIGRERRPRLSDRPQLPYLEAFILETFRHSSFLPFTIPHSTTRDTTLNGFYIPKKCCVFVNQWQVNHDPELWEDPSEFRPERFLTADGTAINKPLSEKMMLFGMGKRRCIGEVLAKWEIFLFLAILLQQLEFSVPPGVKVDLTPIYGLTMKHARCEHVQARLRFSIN

[17] = Aqueous kinetic solubility of the compound at pH 6.5; type: physicochemical; conditions: read-out: Kinetic_solubility
Cytochrome P450 3A4 = Cytochrome P450 3A4 (Homo sapiens, UniProt P08684); experiment: Inhibition of CYP3A4 (unknown origin); type: ADME
[18] = Ratio of drug uptake in brain to plasma in rat at 5 mg/kg, po after 1 hr; type: ADME, organism-based; set-up: dose 5 mg/kg, route oral; conditions: read-out: BPR
Cytochrome P450 2C8 = biological target: T3, Cytochrome P450 2C8 (Homo sapiens, UniProt P10632); experiment: Inhibition of CYP2C8 (unknown origin); type: ADME
T3 sequence (P10632 whole entry): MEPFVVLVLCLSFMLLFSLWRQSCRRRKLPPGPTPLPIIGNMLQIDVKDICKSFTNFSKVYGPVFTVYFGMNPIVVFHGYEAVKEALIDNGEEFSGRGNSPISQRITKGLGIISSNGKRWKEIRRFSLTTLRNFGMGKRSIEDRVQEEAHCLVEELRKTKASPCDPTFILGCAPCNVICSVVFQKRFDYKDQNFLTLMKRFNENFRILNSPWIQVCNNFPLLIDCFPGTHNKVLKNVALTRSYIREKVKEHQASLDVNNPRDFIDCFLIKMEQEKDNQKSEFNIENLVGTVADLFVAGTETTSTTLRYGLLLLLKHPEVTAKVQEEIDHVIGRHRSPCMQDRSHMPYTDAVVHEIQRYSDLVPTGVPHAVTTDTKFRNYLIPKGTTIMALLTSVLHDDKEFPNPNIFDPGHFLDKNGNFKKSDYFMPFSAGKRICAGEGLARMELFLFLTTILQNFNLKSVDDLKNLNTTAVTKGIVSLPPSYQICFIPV

[19] = Lipophilicity, log D of the compound by shake flask method; type: physicochemical; conditions: octanol/water
Cytochrome P450 2C9 = Cytochrome P450 2C9 (Homo sapiens, UniProt P11712); experiment: Inhibition of CYP2C9 (unknown origin); type: ADME
Cytochrome P450 2D6 = Cytochrome P450 2D6 (Homo sapiens, UniProt P10635); experiment: Inhibition of CYP2D6 (unknown origin); type: ADME
[20] = Fraction unbound in rat brain; type: ADME, tissue-based
[21] = Fraction unbound in rat plasma; type: ADME, cell-free
[22] = Half life in rat at 1 mg/kg, iv; type: ADME, organism-based; set-up: dose 1 mg/kg, route intravenous; conditions: in vivo
[23] = Clearance in rat at 1 mg/kg, iv; type: ADME, organism-based; set-up: dose 1 mg/kg, route intravenous; conditions: in vivo
[24] = Volume of distribution at steady state in rat at 1 mg/kg, iv; type: ADME, organism-based; set-up: dose 1 mg/kg, route intravenous; conditions: in vivo, read-out: Vdss
[25] = Apparent intrinsic clearance in human hepatocytes; type: ADME, cell-based, Hepatocyte; conditions: read-out: CLH(app)

Chain of Cytochrome P450 2C19 (P33261 whole entry): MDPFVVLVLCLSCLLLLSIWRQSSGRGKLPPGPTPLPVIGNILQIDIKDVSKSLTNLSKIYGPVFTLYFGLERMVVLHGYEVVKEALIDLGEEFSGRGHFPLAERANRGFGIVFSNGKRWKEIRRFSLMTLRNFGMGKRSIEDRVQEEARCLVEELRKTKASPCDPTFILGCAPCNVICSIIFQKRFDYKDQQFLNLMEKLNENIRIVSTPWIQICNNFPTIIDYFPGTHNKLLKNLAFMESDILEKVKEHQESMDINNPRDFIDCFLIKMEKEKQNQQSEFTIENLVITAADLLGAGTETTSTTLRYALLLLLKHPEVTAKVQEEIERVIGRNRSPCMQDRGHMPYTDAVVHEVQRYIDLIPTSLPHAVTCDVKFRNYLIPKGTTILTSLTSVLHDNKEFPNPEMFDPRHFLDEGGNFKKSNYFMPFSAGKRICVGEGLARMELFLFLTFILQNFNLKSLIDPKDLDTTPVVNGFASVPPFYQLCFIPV
Chain of Cytochrome P450 2C9 (P11712 whole entry): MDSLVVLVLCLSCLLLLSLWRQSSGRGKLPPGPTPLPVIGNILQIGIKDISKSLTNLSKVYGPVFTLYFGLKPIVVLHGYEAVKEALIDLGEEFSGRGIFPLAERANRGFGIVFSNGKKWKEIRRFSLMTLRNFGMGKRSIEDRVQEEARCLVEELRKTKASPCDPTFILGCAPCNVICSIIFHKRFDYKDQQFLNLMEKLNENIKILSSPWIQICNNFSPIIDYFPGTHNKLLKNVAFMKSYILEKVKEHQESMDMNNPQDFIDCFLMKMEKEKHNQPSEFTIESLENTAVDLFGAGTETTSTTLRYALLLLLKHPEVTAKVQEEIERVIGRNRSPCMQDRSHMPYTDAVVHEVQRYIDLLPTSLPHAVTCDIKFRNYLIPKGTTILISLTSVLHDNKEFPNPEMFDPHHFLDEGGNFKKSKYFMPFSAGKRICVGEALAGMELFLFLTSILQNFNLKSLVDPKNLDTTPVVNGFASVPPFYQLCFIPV
Chain of Cytochrome P450 3A4 (P08684 whole entry): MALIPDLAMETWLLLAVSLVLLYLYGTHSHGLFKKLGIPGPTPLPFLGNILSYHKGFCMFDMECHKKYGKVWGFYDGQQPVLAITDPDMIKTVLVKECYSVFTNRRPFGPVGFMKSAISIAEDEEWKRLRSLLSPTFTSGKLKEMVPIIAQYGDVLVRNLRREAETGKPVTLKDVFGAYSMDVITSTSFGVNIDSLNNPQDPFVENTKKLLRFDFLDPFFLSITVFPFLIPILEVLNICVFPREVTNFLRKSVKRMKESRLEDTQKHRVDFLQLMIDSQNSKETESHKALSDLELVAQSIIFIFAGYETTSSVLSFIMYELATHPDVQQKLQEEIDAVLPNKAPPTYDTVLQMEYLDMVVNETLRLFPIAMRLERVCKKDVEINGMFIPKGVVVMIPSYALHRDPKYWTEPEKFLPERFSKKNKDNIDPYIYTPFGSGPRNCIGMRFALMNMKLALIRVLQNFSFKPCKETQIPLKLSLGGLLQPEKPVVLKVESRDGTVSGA
Chain of Cytochrome P450 2D6 (P10635 whole entry): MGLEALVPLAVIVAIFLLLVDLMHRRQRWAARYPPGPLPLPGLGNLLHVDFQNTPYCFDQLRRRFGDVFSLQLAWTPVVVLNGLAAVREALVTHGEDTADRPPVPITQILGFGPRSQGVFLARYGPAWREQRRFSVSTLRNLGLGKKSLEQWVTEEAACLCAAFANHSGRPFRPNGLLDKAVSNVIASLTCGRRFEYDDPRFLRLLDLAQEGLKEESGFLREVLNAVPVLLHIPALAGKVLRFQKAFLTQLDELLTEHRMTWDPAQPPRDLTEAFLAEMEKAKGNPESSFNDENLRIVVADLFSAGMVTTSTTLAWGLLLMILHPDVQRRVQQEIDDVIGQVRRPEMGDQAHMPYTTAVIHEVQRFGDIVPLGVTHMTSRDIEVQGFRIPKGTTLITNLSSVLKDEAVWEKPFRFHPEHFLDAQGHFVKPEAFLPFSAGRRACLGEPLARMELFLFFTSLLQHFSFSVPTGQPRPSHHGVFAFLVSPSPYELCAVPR

COc1cc2c(=O)n(CCc3cccc(Cl)c3)ccc2cc1-n1cnc(C)c1
efflux ratio (MDR1 (human) [1]): 1 | CLint scaled [2]: 32.7 mL/min/kg | pIC50 (Gamma-secretase [3]): < 4.80

COc1c(-n2cnc(C)c2)ccc2c(=O)n(CCc3cccc(Cl)c3)ccc12
efflux ratio (MDR1 (human) [1]): 1.2 | CLint scaled [2]: 36.1 mL/min/kg | pIC50 (Gamma-secretase [3]): 5.47

COc1cc(C(=O)NCc2cccc(C(F)(F)F)c2)ccc1-n1cnc(C)c1
CLint scaled [2]: 27.8 mL/min/kg | pIC50 (Gamma-secretase [3]): 6.18

Cc1cn(-c2ccc3n(c2=O)CCN(CCOc2ccc(C(F)(F)F)cc2)C3=O)cn1
CLint scaled [4]: 40.3 mL/min/kg | efflux ratio (MDR1 (human) [1]): 1.5 | CLint scaled [2]: < 9.7 mL/min/kg | pIC50 (Gamma-secretase [3]): 5.90

C#CCCCOc1ccc(C(=O)c2cccc(OCCN3CCn4c(ccc(-n5cnc(C)c5)c4=O)C3=O)c2)cc1
Activity [5]: Active | pIC50 (Gamma-secretase [6]): 6.87 | Activity [7]: inactive | Activity [8]: Active | Activity [9]: inactive

Cc1cn(-c2ccc3n(c2=O)CCN(CCOc2cccc(C(F)(F)F)c2)C3=O)cn1
CLint scaled [4]: 79.4 mL/min/kg | efflux ratio (MDR1 (human) [1]): 1.2 | CLint scaled [2]: < 8 mL/min/kg | pIC50 (Gamma-secretase [3]): 6.28

Cc1cn(-c2ccc3n(c2=O)CCN(CCOc2ccccc2Cl)C3=O)cn1
CLint scaled [4]: 117 mL/min/kg | efflux ratio (MDR1 (human) [1]): 1.5 | CLint scaled [2]: < 10.4 mL/min/kg | pIC50 (Gamma-secretase [3]): 5.82

Cc1cn(-c2ccc3c(=O)n(Cc4cccc(C(F)(F)F)c4)ccc3c2O)cn1
efflux ratio (MDR1 (human) [1]): 1.1 | CLint scaled [2]: 12.3 mL/min/kg | pIC50 (Gamma-secretase [3]): 6.04

Cc1cn(-c2ccc3n(c2=O)CCN(Cc2cccc(C(F)(F)F)c2)C3=O)cn1
CLint scaled [4]: < 25.4 mL/min/kg | efflux ratio (MDR1 (human) [1]): 1.5 | CLint scaled [2]: < 8 mL/min/kg | pIC50 (Gamma-secretase [3]): 5.79

Cc1cn(-c2ccc3n(c2=O)CCN(CCOc2cccc4ccc(F)cc24)C3=O)cn1
CLint scaled [4]: 469 mL/min/kg | efflux ratio (MDR1 (human) [1]): 1.5 | CLint scaled [2]: 30 mL/min/kg | pIC50 (Gamma-secretase [3]): 7.82

Cc1cn(-c2ccc3n(c2=O)CCN(CCOc2ccc(F)cc2C(F)(F)F)C3=O)cn1
pIC50 (Cytochrome P450 2C19): < 4.52 | pIC50 (Gamma-secretase [10]): < 4.30 | bioavailability [11]: 100% | Kp uu [12]: 0.43 | CLint scaled [4]: 44.1 mL/min/kg | efflux ratio (MDR1 (human) [1]): 1.5 | concentration at 1 h [13]: 964 ng/mL | Papp A→B [14]: 17.7 ×10⁻⁶ cm/s | CLint scaled [2]: < 8.8 mL/min/kg | concentration at 1 h [15]: 718 ng/mL | Papp A→B (MDR1 (human) [16]): 13.1 ×10⁻⁶ cm/s | pIC50 (Cytochrome P450 1A2): < 4.52 | solubility kinetic [17]: 177 µM (≈ 79.7 µg/mL) | pIC50 (Cytochrome P450 3A4): < 4.52 | Kp at 1 h [18]: 0.74 | pIC50 (Cytochrome P450 2C8): 4.72 | logD [19]: 2.75 | pIC50 (Gamma-secretase [3]): 6.60 | pIC50 (Cytochrome P450 2C9): < 4.52 | pIC50 (Cytochrome P450 2D6): < 4.52 | fraction unbound [20]: 0.032 | fraction unbound [21]: 0.055 | half-life [22]: 2.09 h | clearance [23]: 14.3 mL/min/kg | Vd [24]: 1.91 L/kg

Cc1cn(-c2ccc3n(c2=O)CCN(CCOc2ccccc2C(F)(F)F)C3=O)cn1
bioavailability [11]: 23% | CLint scaled [4]: 97 mL/min/kg | efflux ratio (MDR1 (human) [1]): 1.5 | CLint scaled [2]: 12.7 mL/min/kg | pIC50 (Gamma-secretase [3]): 6.51

Cc1cn(-c2ccc3n(c2=O)CCN(CC2(c4ccc(Cl)cc4)CC2)C3=O)cn1
CLint scaled [25]: < 2.8 mL/min/kg | CLint scaled [4]: 482 mL/min/kg | efflux ratio (MDR1 (human) [1]): 1.7 | CLint scaled [2]: 8.1 mL/min/kg | pIC50 (Gamma-secretase [3]): 6.39
